Experiments:
Test in all cases: Bliss excess, mean over the matrix (fraction); higher = more synergy
[1] = test system: HT-3 (Cervical Carcinoma)
Summary of the method: (§1)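 Bliss excess equals the observed combination effect minus the expected value EA + EB − EA·EB, where EA and EB are the effects of each agent alone. Combination Emax is the second-highest inhibition within the matrix. Inhibition was scaled from CellTiter-Glo 2.0 luminescence, with 0 set by vehicle wells and 1 by blank wells, after 72 hours of two-drug dosing of cells plated in 1536-well plates.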

[2] = test system: NCI-H1435 (Non-Small Cell Lung Carcinoma)
Summary of the method: as §1

[3] = test system: SCC90 (Head and Neck Carcinoma)
Summary of the method: as §1

DK-MG (Glioblastoma) = test system: DK-MG (Glioblastoma)
Summary of the method: as §1

[4] = test system: BT-474 (Breast Carcinoma)
Summary of the method: as §1

NCI-H2452 (Mesothelioma) = test system: NCI-H2452 (Mesothelioma)
Summary of the method: as §1

[5] = test system: BC-1 (B-Cell Non-Hodgkin's Lymphoma)
Summary of the method: as §1

[6] = test system: KNS-62 (Squamous Cell Lung Carcinoma)
Summary of the method: as §1

[7] = test system: SBC-3 (Small Cell Lung Carcinoma)
Summary of the method: as §1

[8] = test system: RS4-11 (B-Lymphoblastic Leukemia)
Summary of the method: as §1

GCIY (Gastric Carcinoma) = test system: GCIY (Gastric Carcinoma)
Summary of the method: as §1

[9] = test system: SUP-HD1 (Hodgkin's Lymphoma)
Summary of the method: as §1

MG-63 (Osteosarcoma) = test system: MG-63 (Osteosarcoma)
Summary of the method: as §1

[10] = test system: JJN-3 (Plasma Cell Myeloma)
Summary of the method: as §1

[11] = test system: CAL-85-1 (Breast Carcinoma)
Summary of the method: as §1

[12] = test system: TOV-21G (Ovarian Carcinoma)
Summary of the method: as §1

[13] = test system: NTERA-2-cl-D1 (Other Solid Carcinomas)
Summary of the method: as §1

[14] = test system: ATN-1 (T-Lymphoblastic Leukemia)
Summary of the method: as §1

[15] = test system: NCI-H2023 (Non-Small Cell Lung Carcinoma)
Summary of the method: as §1

HT-144 (Melanoma) = test system: HT-144 (Melanoma)
Summary of the method: as §1

Row | Structure (SMILES) | Bliss excess [1] | Bliss excess [2] | Bliss excess [3] | Bliss excess (DK-MG (Glioblastoma)) | Bliss excess [4] | Bliss excess (NCI-H2452 (Mesothelioma)) | Bliss excess [5] | Bliss excess [6] | Bliss excess [7] | Bliss excess [8] | Bliss excess (GCIY (Gastric Carcinoma)) | Bliss excess [9] | Bliss excess (MG-63 (Osteosarcoma)) | Bliss excess [10] | Bliss excess [11] | Bliss excess [12] | Bliss excess [13] | Bliss excess [14] | Bliss excess [15] | Bliss excess (HT-144 (Melanoma))
1 | Cc1c2c(nn1C)CSCc1cc(n(C)n1)CSc1cc(c3ccccc3c1)OCCCc1c(C(=O)O)n(C)c3c-2c(Cl)ccc13 [AZD5991] + Cn1cnc2c(F)c(Nc3ccc(Br)cc3Cl)c(C(=O)NOCCO)cc21 [Selumetinib] (first compound max 1 µM, 7x7, partner max 3 µM) | 0.0926 | 0.0727 | 0.0581 | 0.0143 | -0.0205 | 0.0633 | 0.012 | -0.0171 | -0.0674 | 0.0021 | -0.0633 | -0.011 | -0.042 | 0.0114 | -0.0162 | 0.0121 | 0.0115 | -0.0672 | 0.0293 | 0.01
2 | C[C@@H]1COCCN1c1cc(C2([S@](C)(=N)=O)CC2)nc(-c2ccnc3[nH]ccc23)n1 [AZD6738] + O=C(c1cc(Cc2n[nH]c(=O)c3ccccc23)ccc1F)N1CCN(C(=O)C2CC2)CC1 [Olaparib] (first compound max 10 µM, 7x7, partner max 10 µM) | 0.0399 | 0.0203 | 0.021 | 0.0079 | -0.0135 | -0.0415 | -0.0041 | 0.0026 | -0.0328 | -0.0365 | -0.0433 | -0.054 | 0.047 | -0.0548 | -0.0003 | 0.0035 | 0.0898 | 0.0169 | 0.0867 | 0.0461
3 | NC1(C(=O)N[C@@H](CCO)c2ccc(Cl)cc2)CCN(c2ncnc3[nH]ccc23)CC1 [Capivasertib] + CC(=O)c1c(C)c2cnc(Nc3ccc(N4CCNCC4)cn3)nc2n(C2CCCC2)c1=O [Palbociclib] (first compound max 10 µM, 7x7, partner max 10 µM) | -0.0182 | -0.0245 | -0.0256 | -0.0228 | -0.0261 | -0.02 | 0.0026 | -0.0236 | 0.0265 | -0.0425 | -0.0402 | -0.0643 | 0.0404 | -0.0257 | -0.0019 | -0.0466 | 0.0373 | -0.0217 | 0.0276 | -0.0486
4 | NC1(C(=O)N[C@@H](CCO)c2ccc(Cl)cc2)CCN(c2ncnc3[nH]ccc23)CC1 [Capivasertib] + CC(C)n1c(=O)n(C)c2cnc3cc(F)c(-c4ccc(OCCCN5CCCCC5)nc4)cc3c21 [AZD1390] (first compound max 10 µM, 7x7, partner max 0.3 µM) | -0.035 | -0.0336 | -0.0484 | -0.0847 | -0.0406 | -0.0922 | -0.0175 | -0.0458 | -0.0144 | 0.0078 | -0.0841 | -0.136 | -0.0844 | -0.0105 | -0.0213 | -0.0076 | 0.0115 | -0.062 | -0.0587 | -0.0688
5 | NC1(C(=O)N[C@@H](CCO)c2ccc(Cl)cc2)CCN(c2ncnc3[nH]ccc23)CC1 [Capivasertib] + CCN(CCO)CCCOc1ccc2c(Nc3cc(CC(=O)Nc4cccc(F)c4)[nH]n3)ncnc2c1 [AZD2811] (first compound max 10 µM, 7x7, partner max 1 µM) | -0.0327 | -0.0384 | 0.0332 | -0.0447 | 0.0025 | -0.079 | -0.0383 | -0.0086 | 0.059 | -0.0504 | -0.0578 | -0.0307 | -0.0295 | -0.0148 | -0.0241 | 0.0123 | 0.0106 | -0.0813 | -0.0087 | -0.0195
6 | NC1(C(=O)N[C@@H](CCO)c2ccc(Cl)cc2)CCN(c2ncnc3[nH]ccc23)CC1 [Capivasertib] + COc1nnc2ccc(N3CCC(c4ccc(OCCN5CCN(C)C(=O)[C@H]5C)cc4)CC3)nn12 [AZD5153] (first compound max 10 µM, 7x7, partner max 1 µM) | -0.0281 | -0.025 | 0.0079 | 0.0534 | 0.0761 | -0.0192 | -0.0042 | 0.0035 | -0.0135 | 0.089 | -0.0265 | -0.047 | -0.0237 | -0.0242 | 0.0009 | 0.0011 | -0.0097 | -0.0444 | 0.0221 | 0.0653
7 | NC1(C(=O)N[C@@H](CCO)c2ccc(Cl)cc2)CCN(c2ncnc3[nH]ccc23)CC1 [Capivasertib] + C[C@@H]1COCCN1C2=NC(=NC(=C2)C3(CC3)[S@](=N)(=O)C)C4=C5C=CNC5=NC=C4 [AZD6738] (first compound max 10 µM, 7x7, partner max 10 µM) | -0.0091 | 0.0077 | -0.0541 | -0.0405 | 0.0314 | -0.0827 | 0.0034 | -0.0305 | -0.0479 | -0.0276 | -0.128 | -0.0508 | -0.0524 | -0.0181 | -0.0062 | -0.0241 | -0.0258 | -0.0127 | 0.0282 | -0.0292
8 | NC1(C(=O)N[C@@H](CCO)c2ccc(Cl)cc2)CCN(c2ncnc3[nH]ccc23)CC1 [Capivasertib] + Cn1cnc2c(F)c(Nc3ccc(Br)cc3Cl)c(C(=O)NOCCO)cc21 [Selumetinib] (first compound max 10 µM, 7x7, partner max 10 µM) | -0.0176 | 0.0234 | 0.0331 | 0.0686 | 0.0509 | -0.092 | 0.0898 | 0.119 | -0.0353 | -0.016 | -0.0245 | -0.0141 | -0.0011 | 0.0565 | -0.0429 | 0.0122 | 0.0064 | 0.0055 | -0.0583 | 0.0042
9 | COc1cccc2c1C(=O)c1c(O)c3c(c(O)c1C2=O)C[C@@](O)(C(=O)CO)C[C@@H]3O[C@H]1C[C@H](N)[C@H](O)[C@H](C)O1 [Doxorubicin] + Cc1cc2ncnn2cc1Nc1ncc2c(n1)n(C1CCOCC1)c(=O)n2C [AZD7648] (first compound max 1 µM, 7x7, partner max 10 µM) | 0.127 | 0.0002 | -0.0226 | 0.0299 | -0.0356 | 0.0928 | 0.094 | -0.0075 | 0.0553 | 0.171 | 0.0606 | 0.0727 | 0.0908 | 0.0238 | 0.0095 | 0.0091 | 0.0426 | 0.0967 | 0.0476 | 0.0302
10 | CS(=O)(=O)CCNCc1ccc(-c2ccc3ncnc(Nc4ccc(OCc5cccc(F)c5)c(Cl)c4)c3c2)o1 [Lapatinib] + C[C@@H](Oc1cc(-c2cnn(C3CCNCC3)c2)cnc1N)c1c(Cl)ccc(F)c1Cl [Crizotinib] (first compound max 10 µM, 7x7, partner max 10 µM) | -0.0357 | 0.061 | 0.0827 | -0.0556 | 0.0284 | -0.0932 | -0.0557 | -0.0527 | -0.0761 | -0.0183 | -0.003 | -0.0579 | -0.064 | -0.0287 | 0.0028 | -0.0289 | -0.0579 | 0.0298 | -0.026 | -0.0643
11 | CC(=O)c1c(C)c2cnc(Nc3ccc(N4CCNCC4)cn3)nc2n(C2CCCC2)c1=O [Palbociclib] + CC1(C)CCC(CN2CCN(c3ccc(C(=O)NS(=O)(=O)c4ccc(NCC5CCOCC5)c([N+](=O)[O-])c4)c(Oc4cnc5[nH]ccc5c4)c3)CC2)=C(c2ccc(Cl)cc2)C1 [Venetoclax] (first compound max 10 µM, 7x7, partner max 1 µM) | -0.0529 | -0.0191 | -0.0435 | 0.0131 | -0.0444 | -0.0188 | -0.0747 | -0.0152 | -0.038 | 0.0385 | -0.0391 | -0.0641 | 0.0196 | -0.0357 | -0.0457 | -0.025 | -0.0389 | 0.0869 | -0.0067 | -0.0356
12 | CC(=O)c1c(C)c2cnc(Nc3ccc(N4CCNCC4)cn3)nc2n(C2CCCC2)c1=O [Palbociclib] + Cc1c2c(nn1C)CSCc1cc(n(C)n1)CSc1cc(c3ccccc3c1)OCCCc1c(C(=O)O)n(C)c3c-2c(Cl)ccc13 [AZD5991] (first compound max 10 µM, 7x7, partner max 1 µM) | -0.0751 | -0.0308 | -0.0224 | -0.0018 | -0.0924 | -0.0651 | -0.0028 | -0.0142 | -0.043 | -0.0519 | -0.0198 | -0.0704 | 0.0096 | -0.0434 | -0.0101 | -0.0439 | 0.019 | -0.0498 | -0.0335 | -0.0757
13 | CC(=O)c1c(C)c2cnc(Nc3ccc(N4CCNCC4)cn3)nc2n(C2CCCC2)c1=O [Palbociclib] + Cn1cnc2c(F)c(Nc3ccc(Br)cc3Cl)c(C(=O)NOCCO)cc21 [Selumetinib] (first compound max 10 µM, 7x7, partner max 10 µM) | -0.0279 | -0.0105 | -0.0058 | -0.0133 | -0.0418 | -0.0682 | 0.0124 | 0.038 | -0.0396 | -0.0881 | 0.0351 | -0.0414 | 0.0263 | -0.0244 | -0.0218 | -0.0259 | -0.007 | 0.0209 | -0.0313 | -0.0029
14 | COc1cccc(OCCCN)c1-c1cc(Nc2cnc(C#N)cn2)n[nH]1 [Prexasertib] + C=CCn1c(=O)c2cnc(Nc3ccc(N4CCN(C)CC4)cc3)nc2n1-c1cccc(C(C)(C)O)n1 [AZD1775] (first compound max 1 µM, partner max 1 µM) | 0.159 | 0.0718 | 0.0902 | -0.0125 | -0.0223 | 0.0473 | 0.0168 | 0.0697 | 0.146 | 0.0466 | 0.0355 | 0.0009 | 0.141 | 0.085 | 0.124 | -0.0089 | 0.19 | 0.0134 | 0.0205 | 0.0666
15 | COc1cccc(OCCCN)c1-c1cc(Nc2cnc(C#N)cn2)n[nH]1 [Prexasertib] + CCc1c2c(nc3ccc(O)cc13)-c1cc3c(c(=O)n1C2)COC(=O)[C@]3(O)CC [SN-38] (first compound max 1 µM, 7x7, partner max 0.3 µM) | 0.0221 | 0.0171 | 0.127 | -0.0146 | -0.0075 | 0.103 | -0.0226 | -0.0385 | -0.0766 | 0.0066 | -0.0379 | -0.075 | -0.0315 | 0.0314 | 0.0699 | -0.122 | 0.0728 | 0.0005 | -0.0527 | -0.0236

Source: the supplement of paper PMC11061612
